molecular target: T1, human recombinant mGluR5 (Homo sapiens, UniProt P41594); experiment: positive modulation of mGluR5, calcium based FLIPR assay; conditions: HEK 293 cell line expressing human recombinant mGluR5; Ca2+ peak height after glutamate at approximately 5% basal stimulation; nonlinear regression
T1 construct: expressed in transfected cells; hygromycin and geneticin selection
How it was run: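 HEK293 cells with tetracycline-free induction, Calcium-4 dye-loaded in Ringer pH 7.4. Compound added 5 min before glutamate at ~5% of maximal effect, 1% DMSO. EC50 from peak Ca2+ fluorescence, normalized to basal glutamate (100%) and 10 μM CDPPB (200%), via nonlinear regression.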

T1 sequence (P41594 21-1212): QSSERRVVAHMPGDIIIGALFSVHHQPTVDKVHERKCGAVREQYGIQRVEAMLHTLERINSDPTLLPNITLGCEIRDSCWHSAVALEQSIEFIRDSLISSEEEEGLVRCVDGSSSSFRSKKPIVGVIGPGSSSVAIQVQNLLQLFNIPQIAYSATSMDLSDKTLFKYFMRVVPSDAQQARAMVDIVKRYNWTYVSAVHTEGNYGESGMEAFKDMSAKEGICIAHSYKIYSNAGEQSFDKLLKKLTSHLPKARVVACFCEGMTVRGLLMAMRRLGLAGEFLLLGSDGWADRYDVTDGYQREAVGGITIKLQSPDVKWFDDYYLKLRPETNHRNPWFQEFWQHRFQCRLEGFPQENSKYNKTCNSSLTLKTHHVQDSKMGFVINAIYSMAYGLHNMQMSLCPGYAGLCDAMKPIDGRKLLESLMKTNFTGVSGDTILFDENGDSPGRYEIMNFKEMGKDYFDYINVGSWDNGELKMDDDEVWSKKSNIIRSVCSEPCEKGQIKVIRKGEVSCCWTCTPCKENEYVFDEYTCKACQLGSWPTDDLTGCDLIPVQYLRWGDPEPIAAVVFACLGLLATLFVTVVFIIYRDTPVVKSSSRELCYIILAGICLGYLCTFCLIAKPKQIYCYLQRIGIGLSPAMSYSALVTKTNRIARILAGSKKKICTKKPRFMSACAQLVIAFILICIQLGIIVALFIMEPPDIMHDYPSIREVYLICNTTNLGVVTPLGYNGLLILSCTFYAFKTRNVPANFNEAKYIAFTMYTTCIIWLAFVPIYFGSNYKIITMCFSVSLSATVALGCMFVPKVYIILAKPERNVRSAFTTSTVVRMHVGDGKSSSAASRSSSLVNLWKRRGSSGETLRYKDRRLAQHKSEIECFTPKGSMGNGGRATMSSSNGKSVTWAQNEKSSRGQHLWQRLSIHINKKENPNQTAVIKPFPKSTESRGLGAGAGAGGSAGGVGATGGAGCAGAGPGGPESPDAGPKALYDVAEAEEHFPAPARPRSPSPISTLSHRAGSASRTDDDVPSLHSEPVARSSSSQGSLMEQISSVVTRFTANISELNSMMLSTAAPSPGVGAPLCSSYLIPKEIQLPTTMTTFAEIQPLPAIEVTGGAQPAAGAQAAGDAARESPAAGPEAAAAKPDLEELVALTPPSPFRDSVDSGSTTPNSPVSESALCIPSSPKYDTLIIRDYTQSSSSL

Structure (SMILES)	EC50 [nM]
CC1(C)CN(C(=O)c2cc(Cl)c(F)c(Cl)c2)CCN1C(=O)c1ncn(-c2ccccc2)n1 [Example 156]	232
COc1cccc(C(=O)N2C[C@@H](C)N(C(=O)c3ncn(-c4cccc(F)c4)n3)[C@@H](C)C2)n1 [Example 303]	215
CC1(C)CN(C(=O)c2cc(Cl)cc(Br)c2)CCN1C(=O)c1ncn(-c2ccccc2)n1 [Example 125]	83
CC1(C)CN(C(=O)c2cc(Cl)c3c(c2)OCCO3)CCN1C(=O)c1nnn(-c2cccc(Cl)c2)n1 [Example 171, [4-(8-Chloro-2,3-dihydro-benzo[1,4]dioxine-6-carbonyl)-2,2-dimethyl-piperazin-1-yl]-[2-(3-chloro-phenyl)-2H-tetrazol-5-yl]-methanone]	56
CC1(C)CN(C(=O)c2csc(C3CC3)n2)CCN1C(=O)c1ncn(-c2ccccc2)n1 [Example 141]	487
COc1cccc(C(=O)N2CCN(C(=O)c3ncn(-c4cccc(Cl)c4)n3)C[C@H]2C)n1 [Example 248, (R)-{4-[1-(3-Chloro-phenyl)-1H-[1,2,4]triazole-3-carbonyl]-2-methyl-piperazin-1-yl}-(6-methoxy-pyridin-2-yl)-methanone]	169
Cc1oc2ccc(F)cc2c1C(=O)N1CCN(C(=O)c2ncn(-c3cccc(F)c3)n2)C(C)(C)C1 [Example 2]	67
Cc1cccc(-n2cnc(C(=O)N3CCN(C(=O)c4c(C)oc5ccccc45)CC3(C)C)n2)c1 [Example 10]	95
CC1CN(C(=O)c2ncn(-c3cccc(Cl)c3)n2)CCN1C(=O)c1cc(Cl)c2c(c1)OCCO2 (centres unmarked) [Example 221]	174
CC1(C)CN(C(=O)c2cccc(-c3cccc(C#N)c3)c2)CCN1C(=O)c1ncn(-c2cccc(Cl)c2)n1 [Example 55]	64
Cc1c(C(=O)N2CCN(C(=O)c3ncn(-c4cccc(Cl)c4)n3)C[C@H]2C)oc2ccc(F)cc12 [Example 250]	371
COc1cccc(C(=O)N2CCN(C(=O)c3nnn(-c4ccccc4F)n3)C(C)(C)C2)n1 [Example 201]	102
CC1(C)CN(C(=O)c2ccnc(C(F)(F)F)c2)CCN1C(=O)c1ncn(-c2cccc(Cl)c2)n1 [Example 88]	375
Cc1cc(-n2cnc(C(=O)N3CCN(C(=O)c4c(C)oc5ccccc45)CC3(C)C)n2)ccc1F [Example 163]	1510
CC(C)c1ccc(C(=O)N2CCN(C(=O)c3ncn(-c4cccc(Cl)c4)n3)C(C)(C)C2)cc1 [Example 61]	96
Cn1nc(C(=O)N2CCN(C(=O)c3ncn(-c4cccc(Cl)c4)n3)C(C)(C)C2)c2ccccc21 [Example 77]	181
CC1CN(C(=O)c2cc(Br)c(Br)o2)CCN1C(=O)c1ncn(-c2cccc(Cl)c2)n1 (centres unmarked) [Example 266]	538
CC1CN(C(=O)c2ncn(-c3cccc(Cl)c3)n2)CCN1C(=O)c1cccc(-c2nccs2)c1 (centres unmarked) [Example 218]	422
CC1(C)CN(C(=O)c2cccc(Cl)c2)CCN1C(=O)c1nnn(-c2cccc(F)c2)n1 [Example 192]	159
COc1cccc(C(=O)N2CCN(C(=O)c3ncn(-c4cccc(Cl)c4)n3)C(C)C2)n1 (centres unmarked) [Example 265, {4-[1-(3-Chloro-phenyl)-1H-[1,2,4]-triazole-3-carbonyl]-3-methyl-piperazin-1-yl}-(6-methoxy-pyridin-2-yl)-methanone]	194
COc1cc(C(=O)N2CCN(C(=O)c3ncn(-c4cccc(Cl)c4)n3)C(C)(C)C2)ccc1C [Example 46]	88

Structure (SMILES)	EC50 [nM]
Cc1c(C(=O)N2CCN(C(=O)c3ncn(-c4cccc(Cl)c4)n3)C[C@@H]2C)oc2ccc(F)cc12 [Example 253]	336
CC1(C)CN(C(=O)c2cccc(-c3nccs3)c2)CCN1C(=O)c1ncn(-c2cccc(Cl)c2)n1 [Example 26]	72
CCn1cc(-c2cccc(C(=O)N3CCN(C(=O)c4ncn(-c5cccc(Cl)c5)n4)C(C)(C)C3)n2)cn1 [Example 92]	119
CC1CN(C(=O)c2ncn(-c3cccc(Cl)c3)n2)CCN1C(=O)c1cc(Br)c(Br)o1 (centres unmarked) [Example 210, [1-(3-Chloro-phenyl)-1H-[1,2,4]triazol-3-yl]-[4-(4,5-dibromo-furan-2-carbonyl)-3-methyl-piperazin-1-yl]-methanone]	314
Cc1oc2ccccc2c1C(=O)N1CCN(C(=O)c2ncn(-c3cccc(F)c3)n2)C(C)(C)C1 [Example 5]	131
CC1CN(C(=O)c2ccc(Cl)s2)CCN1C(=O)c1ncn(-c2cccc(Cl)c2)n1 (centres unmarked) [Example 273]	1320
CC1CN(C(=O)c2cn(C)c3ccccc23)CCN1C(=O)c1ncn(-c2cccc(Cl)c2)n1 (centres unmarked) [Example 276]	264
COCc1c(C(=O)N2CCN(C(=O)c3ncn(-c4cccc(Cl)c4)n3)CC2C)oc2ccccc12 (centres unmarked) [Example 217]	1540
COC(C)c1cccc(C(=O)N2CCN(C(=O)c3ncn(-c4ccccc4)n3)C(C)(C)C2)c1 (centres unmarked) [Example 116]	388
CC1(C)CN(C(=O)c2cc(Br)c(Br)o2)CCN1C(=O)c1ncn(-c2ccccc2)n1 [Example 105]	64
Cc1cc(C)cc(C(=O)N2CCN(C(=O)c3ncn(-c4ccccc4)n3)C(C)(C)C2)c1 [Example 113]	76
Cc1nn(C)cc1-c1cccc(C(=O)N2CCN(C(=O)c3ncn(-c4cccc(Cl)c4)n3)C(C)(C)C2)n1 [Example 93]	242
O=C(c1cc(Br)c(Br)o1)N1CCN(C(=O)c2ncn(-c3cccc(F)c3)n2)C2(CCC2)C1 [Example 306]	445
COc1cccc(C(=O)N2CCN(C(=O)c3ncn(-c4ccccc4)n3)C(C)C2)n1 (centres unmarked) [Example 298]	619
Cc1c(C(=O)N2CCN(C(=O)c3ncn(-c4cccc(Cl)c4)n3)CC2C)oc2c(F)cccc12 (centres unmarked) [Example 232]	1160
Cc1c(C(=O)N2CCN(C(=O)c3ncn(-c4cccc(Cl)c4)n3)C(C)(C)C2)oc2c(F)cccc12 [Example 53]	77
COc1cc(OC)cc(C(=O)N2CCN(C(=O)c3ncn(-c4cccc(Cl)c4)n3)C(C)C2)c1 (centres unmarked) [Example 280]	476
CC1(C)CN(C(=O)c2cccc(F)c2)CCN1C(=O)c1ncn(-c2ccccc2)n1 [Example 114]	233
CC1CN(C(=O)c2ncn(-c3cccc(Cl)c3)n2)CCN1C(=O)c1cc2c(Cl)cccc2s1 (centres unmarked) [Example 223]	330
COc1nc(C(=O)N2CCN(C(=O)c3nnn(-c4cccc(Cl)c4)n3)C(C)(C)C2)cc2ccccc12 [Example 208]	125

Stronger by EC50, values ahead:

EC50 [nM]	Structure (SMILES)
34	COc1nc(C(=O)N2CCN(C(=O)c3nnn(-c4cccc(F)c4)n3)C(C)(C)C2)cc2ccccc12 [Example 207, [2-(3-Fluoro-phenyl)-2H-tetrazol-5-yl]-[4-(1-methoxy-isoquinoline-3-carbonyl)-2,2-dimethyl-piperazin-1-yl]-methanone]
37	CC1(C)CN(C(=O)c2cc(Cl)c3c(c2)OCCO3)CCN1C(=O)c1nnn(-c2cccc(F)c2)n1 [Example 170]
47	CC1(C)CN(C(=O)c2cccc(C(F)F)c2)CCN1C(=O)c1ncn(-c2ccccc2)n1 [Example 135]
26	COc1cc(Cl)cc(C(=O)N2CCN(C(=O)c3nnn(-c4cccc(Cl)c4)n3)C(C)(C)C2)n1 [Example 172]
29	CC1(C)CN(C(=O)c2cc3nccc(-c4ccccc4)n3n2)CCN1C(=O)c1ncn(-c2cccc(Cl)c2)n1 [Example 67]
54	Cc1c(C(=O)N2CCN(C(=O)c3ncn(-c4cccc(Cl)c4)n3)C(C)(C)C2)oc2ccccc12 [Example 45]
53	COc1cccc(-c2cccc(C(=O)N3CCN(C(=O)c4ncn(-c5cccc(Cl)c5)n4)C(C)(C)C3)c2)c1 [Example 69]
48	COc1cccc(C(=O)N2CCN(C(=O)c3ncn(-c4cccc(Cl)c4)n3)C(C)(C)C2)n1 [Example 18]
29	Cc1oc2ccc(Br)cc2c1C(=O)N1CCN(C(=O)c2ncn(-c3ccccc3)n2)C(C)(C)C1 [Example 100]
19	Cc1cccc(-n2cnc(C(=O)N3CCN(C(=O)c4cccc(C5CC5)n4)CC3(C)C)n2)c1 [Example 181]
50	COc1cccc(C(=O)N2CCN(C(=O)c3ncn(-c4cccc(C)c4)n3)C(C)(C)C2)n1 [Example 7, [4-(6-Methoxy-pyridine-2-carbonyl)-2,2-dimethyl-piperazin-1-yl]-[1-m-tolyl-1H-[1,2,4]triazol-3yl]-methanone]
25	COc1nc(C(=O)N2CCN(C(=O)c3ncn(-c4ccccc4)n3)C(C)(C)C2)cc2ccccc12 [Example 97]
52	CC1(C)CN(C(=O)c2cccc(C3CC3)c2)CCN1C(=O)c1ncn(-c2ccccc2)n1 [Example 136]
23	CC1(C)CN(C(=O)c2cccc(C3CCCC3)c2)CCN1C(=O)c1ncn(-c2ccccc2)n1 [Example 144]
33	Cc1cccc(-n2cnc(C(=O)N3CCN(C(=O)c4cccc(Cl)c4)CC3(C)C)n2)c1 [Example 188]
50	CC1(C)CN(C(=O)c2cc(Cl)c3c(c2)OCCO3)CCN1C(=O)c1ncn(-c2ccccc2)n1 [Example 104]
42	CC1(C)CN(C(=O)c2cc3ccccc3c(C3CC3)n2)CCN1C(=O)c1nnn(-c2ccccc2)n1 [Example 205]
38	Cc1noc(C)c1-c1cccc(C(=O)N2CCN(C(=O)c3ncn(-c4cccc(Cl)c4)n3)C(C)(C)C2)n1 [Example 90, [1-(3-Chloro-phenyl)-1H-[1,2,4]triazol-3-yl]-{4-[6-(3,5-dimethyl-isoxazol-4-yl)-pyridine-2-carbonyl]-2,2-dimethyl-piperazin-1-yl]-methanone]
51	CC1(C)CN(C(=O)c2cc(Cl)c3c(c2)OCCO3)CCN1C(=O)c1ncn(-c2cccc(Cl)c2)n1 [Example 19]
28	CCCOc1nc(C(=O)N2CCN(C(=O)c3ncn(-c4ccccc4)n3)C(C)(C)C2)cc2ccccc12 [Example 99]
25	CC1(C)CN(C(=O)c2cccc(C(F)(F)F)c2)CCN1C(=O)c1ncn(-c2cccc(Cl)c2)n1 [Example 14]
